Tests used:
Assay type in all cases: functional, cell-based
[1] = target: T1, Solute carrier organic anion transporter family member 1A1 (Rattus norvegicus, UniProt P46720); test: TP_TRANSPORTER: uptake in Oatp1-expressing HeLa cells; conditions: human
T1 sequence (P46720 whole entry): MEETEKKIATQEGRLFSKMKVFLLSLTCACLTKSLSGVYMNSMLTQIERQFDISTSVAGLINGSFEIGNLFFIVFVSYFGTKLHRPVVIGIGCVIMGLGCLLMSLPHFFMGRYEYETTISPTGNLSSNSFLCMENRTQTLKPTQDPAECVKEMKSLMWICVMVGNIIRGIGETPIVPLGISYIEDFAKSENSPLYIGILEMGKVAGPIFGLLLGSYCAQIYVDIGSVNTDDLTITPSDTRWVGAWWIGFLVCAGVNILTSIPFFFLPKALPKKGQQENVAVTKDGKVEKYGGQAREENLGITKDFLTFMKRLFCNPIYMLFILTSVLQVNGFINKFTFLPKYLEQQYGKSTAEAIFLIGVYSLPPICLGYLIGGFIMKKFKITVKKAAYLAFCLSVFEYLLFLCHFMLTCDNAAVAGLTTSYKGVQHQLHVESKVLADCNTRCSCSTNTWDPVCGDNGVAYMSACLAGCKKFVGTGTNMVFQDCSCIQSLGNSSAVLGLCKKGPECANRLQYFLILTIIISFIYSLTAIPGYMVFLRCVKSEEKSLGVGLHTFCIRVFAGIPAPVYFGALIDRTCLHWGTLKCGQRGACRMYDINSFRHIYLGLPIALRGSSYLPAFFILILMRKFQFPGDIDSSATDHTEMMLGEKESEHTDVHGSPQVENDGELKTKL

[2] = target: T2, Solute carrier organic anion transporter family member 1A2 (Homo sapiens, UniProt P46721); test: TP_TRANSPORTER: uptake in OATP-expressing HeLa cells
T2 sequence (P46721 whole entry): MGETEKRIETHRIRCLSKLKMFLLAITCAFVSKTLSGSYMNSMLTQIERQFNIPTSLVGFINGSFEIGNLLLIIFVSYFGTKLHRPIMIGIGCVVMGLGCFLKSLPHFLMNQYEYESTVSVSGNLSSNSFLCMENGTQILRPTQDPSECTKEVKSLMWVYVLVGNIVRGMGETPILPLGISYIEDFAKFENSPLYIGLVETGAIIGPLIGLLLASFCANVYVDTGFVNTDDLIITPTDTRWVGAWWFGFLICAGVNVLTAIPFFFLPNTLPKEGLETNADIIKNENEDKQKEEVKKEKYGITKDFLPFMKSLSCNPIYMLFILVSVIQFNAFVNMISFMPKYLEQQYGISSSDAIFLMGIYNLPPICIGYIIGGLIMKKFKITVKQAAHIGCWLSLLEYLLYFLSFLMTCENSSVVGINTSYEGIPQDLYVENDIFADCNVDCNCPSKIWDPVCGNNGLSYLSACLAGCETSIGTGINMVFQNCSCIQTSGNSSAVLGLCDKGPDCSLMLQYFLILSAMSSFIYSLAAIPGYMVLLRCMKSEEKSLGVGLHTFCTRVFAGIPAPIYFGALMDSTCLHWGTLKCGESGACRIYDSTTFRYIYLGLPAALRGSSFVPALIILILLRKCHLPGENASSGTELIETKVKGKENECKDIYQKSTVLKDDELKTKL

[3] = target: T3, Solute carrier organic anion transporter family member 1A4 (Rattus norvegicus, UniProt O35913); test: TP_TRANSPORTER: uptake in Oatp2-expressing HeLa cells; conditions: human
T3 sequence (O35913 whole entry): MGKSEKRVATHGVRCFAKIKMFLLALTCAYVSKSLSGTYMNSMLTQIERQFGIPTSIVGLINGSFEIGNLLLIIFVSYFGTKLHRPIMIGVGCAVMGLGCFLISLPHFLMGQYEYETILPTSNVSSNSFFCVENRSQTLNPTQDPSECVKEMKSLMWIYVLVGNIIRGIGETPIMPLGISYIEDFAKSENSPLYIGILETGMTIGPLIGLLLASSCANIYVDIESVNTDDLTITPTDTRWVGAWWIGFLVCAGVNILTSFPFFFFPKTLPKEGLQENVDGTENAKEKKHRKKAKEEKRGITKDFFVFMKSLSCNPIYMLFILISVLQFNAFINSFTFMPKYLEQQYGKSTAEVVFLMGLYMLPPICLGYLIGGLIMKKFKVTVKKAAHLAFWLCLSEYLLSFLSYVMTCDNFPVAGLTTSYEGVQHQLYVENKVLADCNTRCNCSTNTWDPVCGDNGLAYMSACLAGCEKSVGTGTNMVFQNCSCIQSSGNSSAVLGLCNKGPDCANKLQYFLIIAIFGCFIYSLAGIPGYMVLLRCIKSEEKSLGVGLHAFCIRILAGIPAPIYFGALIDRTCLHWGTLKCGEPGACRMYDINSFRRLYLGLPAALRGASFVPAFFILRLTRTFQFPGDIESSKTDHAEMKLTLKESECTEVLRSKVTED

SMILES: CCOC(=O)[C@H](CCc1ccccc1)N[C@@H](C)C(=O)N1CCC[C@H]1C(=O)O [ENALAPRIL]
- Activity [1]: substrate [+]
- Activity [2]: is not a substrate [-]
- Activity [3]: is not a substrate [-]
